Source: PubChem BioAssay AID1259411 (Chemical Carcinogenesis Research Information System (CCRIS), 2018)
Calls of active or inactive are those of the source. The rule behind the calls is not given here.

Test system: rodent carcinogenicity bioassays, tumor incidence
Assay: CCRIS carcinogenicity studies
Settings: Dose: 0, Dose: 0
Procedure, shortened: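 Archive of carcinogenicity, mutagenicity, tumor promotion and tumor inhibition results drawn from journals, NCI reports and other sources, expert-reviewed; covers 1985-2011 and is no longer updated.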

Question: With c1ccccc1 as the molecule, how does the carcinogen call (Species: Mouse, Strain/Sex: C57BL/6 (heterozygous Trp53-deficient)/Male, Route: Inhalation, 100, 300 ppm 6 hr/d, 5 d/wk for 26 wks, then no exposure for lifetime, 100, 300 ppm 6 hr/d, 5 d/wk for 26 wks, then no exposure for lifetime, Tumor Site: Type of Lesion: Blood: hematopoietic neoplasms (325, 83,100%). Lymphoid tissue: thymic lymphoma (4, 50, 25%)) read?
Answer: active; positive (highest dose)

Question: And the carcinogen call (Species: Mouse, Strain/Sex: C57BL/6 (homozygous Trp53-deficient)/Male, Route: Inhalation, 33, 100, 300 ppm 6 hr/d, 5 d/wk for 26 wks, then no exposure for lifetime, 33, 100, 300 ppm 6 hr/d, 5 d/wk for 26 wks, then no exposure for lifetime)?
Answer: inactive; negative

Question: What about the carcinogen call (Species: Mouse, Strain/Sex: C57BL/6 (wild type)/Male, Route: Inhalation, 33, 100, 300 ppm 6 hr/d, 5 d/wk for 26 wks, then no exposure for lifetime, 33, 100, 300 ppm 6 hr/d, 5 d/wk for 26 wks, then no exposure for lifetime, Tumor Site: Type of Lesion: Blood: Hematopoietic neoplasms (10, 21,16, 56%). Lymphoid tissue: Thymic lymphoma (0, 0,11, 28%)) of the same molecule?
Answer: active; positive (highest dose)

Question: And the carcinogen call (Species: Mouse, Strain/Sex: C57BL/6 (wild type)/Male, Route: Inhalation, 100, 300 ppm 6 hr/d, 5 d/wk for 26 wks, then no exposure for lifetime, 100, 300 ppm 6 hr/d, 5 d/wk for 26 wks, then no exposure for lifetime, Tumor Site: Type of Lesion: Blood: hematopoietic neoplasms (8, 25,30%). Lymphoid tissue: thymic lymphoma (0,17, 0%))?
Answer: inactive; negative

Question: And the carcinogen call (Species: RAT, Strain/Sex: F344/FEMALE, Route: GAVAGE, 25, 50, 100 MG/KG IN CORN OIL 5 D/WK FOR 103 WK, 25, 50, 100 MG/KG IN CORN OIL 5 D/WK FOR 103 WK, Tumor Site: Type of Lesion: ORAL CAVITY: SQUAMOUS CELL PAPILLOMA OR CARCINOMA, EAR (ZYMBAL GLAND): CARCINOMA, ADENOMA OR CARCINOMA)?
Answer: active; positive

Question: What about the carcinogen call (Species: RAT, Strain/Sex: F344/MALE, Route: GAVAGE, 50, 100, 200 MG/KG IN CORN OIL 5 D/WK FOR 103 WK, 50, 100, 200 MG/KG IN CORN OIL 5 D/WK FOR 103 WK, Tumor Site: Type of Lesion: INTEGUMENTARY SYSTEM (SKIN): SQUAMOUS CELL PAPILLOMA, SQUAMOUS CELL CARCINOMA, ORAL CAVITY: SQUAMOUS CELL PAPILLOMA, SQU) of the same molecule?
Answer: active; positive

Question: And the carcinogen call (Species: RAT, Strain/Sex: SPRAGUE-DAWLEY/FEMALE, Route: GAVAGE, 50, 250 MG/KG BW IN OLIVE OIL 1/D 4-5 D/WK FOR 52 WK (STUDY DURATION: LIFETIME), 50, 250 MG/KG BW IN OLIVE OIL 1/D 4-5 D/WK FOR 52 WK (STUDY DURATION: LIFETIME), Tumor Site: Type of Lesion: [BRAIN WAS ONLY SITE EVALUATED])?
Answer: inactive; negative

Question: What about the carcinogen call (Species: RAT, Strain/Sex: SPRAGUE-DAWLEY/FEMALE, Route: GAVAGE, 50, 250 MG/KG BW, 1/D, 4-5 D/WK FOR 52 WK, 50, 250 MG/KG BW, 1/D, 4-5 D/WK FOR 52 WK, Tumor Site: Type of Lesion: ZYMBAL GLAND: CARCINOMA, MAMMARY GLAND: CARCINOMA) of the same molecule?
Answer: active; positive

Question: What about the carcinogen call (Species: RAT, Strain/Sex: SPRAGUE-DAWLEY/MALE,FEMALE, Route: GAVAGE, 500 MG/KG BW, 1/WK, Tumor Site: Type of Lesion: ORAL CAVITY: SQUAMOUS CELL CARCINOMA, ZYMBAL GLAND: CARCINOMA) of the same molecule?
Answer: active; positive

Question: And the carcinogen call (Species: RAT, Strain/Sex: SPRAGUE-DAWLEY/MALE, Route: GAVAGE, 50, 250 MG/KG BW IN OLIVE OIL 1/D 4-5 D/WK FOR 52 WK (STUDY DURATION: LIFETIME), 50, 250 MG/KG BW IN OLIVE OIL 1/D 4-5 D/WK FOR 52 WK (STUDY DURATION: LIFETIME), Tumor Site: Type of Lesion: [BRAIN WAS ONLY SITE EVALUATED])?
Answer: inactive; negative

Question: What about the carcinogen call (Species: RAT, Strain/Sex: SPRAGUE-DAWLEY/MALE, Route: GAVAGE, 50, 250 MG/KG BW, 1/D, 4-5 D/WK FOR 52 WK, 50, 250 MG/KG BW, 1/D, 4-5 D/WK FOR 52 WK, Tumor Site: Type of Lesion: HEMATOPOIETIC SYSTEM (LEUKEMIA)) of the same molecule?
Answer: active; positive

Question: What about the carcinogen call (Species: RAT, Strain/Sex: STRAIN-CD/FEMALE, Route: INHALATION, 200 PPM 4 HR/D 5 D/WK FOR 7 WK THEN 7 HR/D FOR 12 WK THEN 300 PPM 7 HR/D 5 D/WK FOR 85 WK (STUDY DURATION: LIFESPAN), Tumor Site: Type of Lesion: MAMMARY GLAND: ADENOCARCINOMA, ORAL CAVITY: CARCINOMA, ZYMBAL GLAND: CARCINOMA, Tumor Site: Type of Lesion: MAMMARY GLAND: ADENOCARCINOMA, ORAL CAVITY: CARCINOMA, ZYMBAL GLAND: CARCINOMA) of the same molecule?
Answer: active; positive

Question: And the carcinogen call (Species: RAT, Strain/Sex: STRAIN-CD/FEMALE, Route: INHALATION, 200 PPM 4 HR/D FOR 7 WK THEN 7 HR/D FOR 12 WK THEN 300 PPM 7 HR/D 5 D/WK FOR 85 WK TO RATS ALSO EXPOSED IN UTERO (STU, Tumor Site: Type of Lesion: ZYMBAL GLAND: CARCINOMA, ORAL CAVITY: CARCINOMA, NASAL CAVITY: CARCINOMA, MAMMARY GLAND: ADENOCARCINOMA, LIVER: HEPATOMA, Tumor Site: Type of Lesion: ZYMBAL GLAND: CARCINOMA, ORAL CAVITY: CARCINOMA, NASAL CAVITY: CARCINOMA, MAMMARY GLAND: ADENOCARCINOMA, LIVER: HEPATOMA)?
Answer: active; positive

Question: And the carcinogen call (Species: RAT, Strain/Sex: STRAIN-CD/FEMALE, Route: INTRAGASTRIC, 50, 250 MG/KG IN OLIVE OIL 1/D 4-5 D/WK FOR 52 WK (STUDY DURATION: LIFESPAN), 50, 250 MG/KG IN OLIVE OIL 1/D 4-5 D/WK FOR 52 WK (STUDY DURATION: LIFESPAN), Tumor Site: Type of Lesion: ZYMBAL GLAND: CARCINOMA)?
Answer: active; positive

Question: And the carcinogen call (Species: RAT, Strain/Sex: STRAIN-CD/FEMALE, Route: INTRAGASTRIC, 500 MG/KG IN OLIVE OIL 1/D 4-5 D/WK FOR 104 WK (STUDY DURATION: 104 WK))?
Answer: inactive; negative

Question: And the carcinogen call (Species: RAT, Strain/Sex: STRAIN-CD/FEMALE, Route: INTRAGASTRIC, 500 MG/KG IN OLIVE OIL 1/D 4-5 D/WK FOR 104 WK (STUDY DURATION: LIFESPAN), Tumor Site: Type of Lesion: ZYMBAL GLAND: CARCINOMA, LIVER: ANGIOSARCOMA, ORAL CAVITY: CARCINOMA, HEMOLYMPHORETICULAR: TUMOR, Tumor Site: Type of Lesion: ZYMBAL GLAND: CARCINOMA, LIVER: ANGIOSARCOMA, ORAL CAVITY: CARCINOMA, HEMOLYMPHORETICULAR: TUMOR)?
Answer: active; positive

Question: And the carcinogen call (Species: RAT, Strain/Sex: STRAIN-CD/MALE, Route: INHALATION, 200 PPM 4 HR/D 5 D/WK FOR 7 WK THEN 7 HR/D FOR 12 WK THEN 300 PPM 7 HR/D 5 D/WK FOR 85 WK TO RATS ALSO EXPOSED IN UTE, Tumor Site: Type of Lesion: ZYMBAL GLAND: CARCINOMA)?
Answer: active; positive

Question: And the carcinogen call (Species: RAT, Strain/Sex: STRAIN-CD/MALE, Route: INTRAGASTRIC, 50, 250 MG/KG IN OLIVE OIL 1/D 4-5 D/WK FOR 52 WK (STUDY DURATION: LIFESPAN), 50, 250 MG/KG IN OLIVE OIL 1/D 4-5 D/WK FOR 52 WK (STUDY DURATION: LIFESPAN), Tumor Site: Type of Lesion: HEMOLYMPHORETICULAR SYSTEM: TUMOR)?
Answer: active; positive

Question: And the carcinogen call (Species: RAT, Strain/Sex: STRAIN-CD/MALE, Route: INTRAGASTRIC, 500 MG/KG IN OLIVE OIL 1/D 4-5 D/WK FOR 104 WK (STUDY DURATION: 104 WK))?
Answer: inactive; negative

Question: What about the carcinogen call (Species: RAT, Strain/Sex: STRAIN-CD/MALE, Route: INTRAGASTRIC, 500 MG/KG IN OLIVE OIL 1/D 4-5 D/WK FOR 104 WK (STUDY DURATION: LIFESPAN), Tumor Site: Type of Lesion: ZYMBAL GLAND: CARCINOMA, ORAL CAVITY: CARCINOMA, NASAL CAVITY: CARCINOMA, SKIN: CARCINOMA, Tumor Site: Type of Lesion: ZYMBAL GLAND: CARCINOMA, ORAL CAVITY: CARCINOMA, NASAL CAVITY: CARCINOMA, SKIN: CARCINOMA) of the same molecule?
Answer: active; positive

Question: What about the carcinogen call (Species: RAT, Strain/Sex: WISTAR/FEMALE, Route: GAVAGE, 500 MG/KG IN OLIVE OIL 1/D FOR 4 TO 5 D/WK FOR 104 WK (STUDY DURATION: LIFETIME), Tumor Site: Type of Lesion: ZYMBAL GLAND: CARCINOMA, ORAL CAVITY: CARCINOMA, NASAL CAVITY: CARCINOMA, Tumor Site: Type of Lesion: ZYMBAL GLAND: CARCINOMA, ORAL CAVITY: CARCINOMA, NASAL CAVITY: CARCINOMA) of the same molecule?
Answer: active; positive

Question: And the carcinogen call (Species: RAT, Strain/Sex: WISTAR/FEMALE, Route: INTRAGASTRIC, 500 MG/KG BW IN OLIVE OIL 1/D 4-5 D/WK FOR 104 WK (STUDY DURATION: LIFESPAN), Tumor Site: Type of Lesion: ZYMBAL GLAND: CARCINOMA, MAMMARY GLAND: ADENOCARCINOMA, HEMOLYMPHORETICULAR SYSTEM: TUMOR, Tumor Site: Type of Lesion: ZYMBAL GLAND: CARCINOMA, MAMMARY GLAND: ADENOCARCINOMA, HEMOLYMPHORETICULAR SYSTEM: TUMOR)?
Answer: active; positive

Question: And the carcinogen call (Species: RAT, Strain/Sex: WISTAR/MALE, Route: GAVAGE, 500 MG/KG IN OLIVE OIL 1/D FOR 4 TO 5 D/WK FOR 104 WK (STUDY DURATION: LIFETIME), Tumor Site: Type of Lesion: ZYMBAL GLAND: CARCINOMA, ORAL CAVITY: CARCINOMA, NASAL CAVITY: CARCINOMA, Tumor Site: Type of Lesion: ZYMBAL GLAND: CARCINOMA, ORAL CAVITY: CARCINOMA, NASAL CAVITY: CARCINOMA)?
Answer: active; positive

Question: What about the carcinogen call (Species: RAT, Strain/Sex: WISTAR/MALE, Route: INTRAGASTRIC, 500 MG/KG BW IN OLIVE OIL 1/D 4-5 D/WK FOR 104 WK (STUDY DURATION: LIFESPAN), Tumor Site: Type of Lesion: ZYMBAL GLAND: CARCINOMA) of the same molecule?
Answer: active; positive
